Assay results: ChEMBL document CHEMBL5532645, “Discovery of proteolysis-targeting chimera targeting undruggable proteins using a covalent ligand screening approach” (Eur J Med Chem, 2024)
Active and inactive are the calls of the source. The calls are words filed in the database; no cut-off is given here.

Tests used:
[1] = biological target: T1, Protein cereblon/E3 ubiquitin-protein ligase Mdm2 (Homo sapiens) (UniProt Q00987+Q96SW2); test: PROTAC activity at CRBN/MDM2 in human HEK293 cells assessed as increase in MDM2 expression at 30 uM measured after 6 hrs by Western blot analysis; assay type: cell-based
T1 sequence (Q00987 whole entry, looked up): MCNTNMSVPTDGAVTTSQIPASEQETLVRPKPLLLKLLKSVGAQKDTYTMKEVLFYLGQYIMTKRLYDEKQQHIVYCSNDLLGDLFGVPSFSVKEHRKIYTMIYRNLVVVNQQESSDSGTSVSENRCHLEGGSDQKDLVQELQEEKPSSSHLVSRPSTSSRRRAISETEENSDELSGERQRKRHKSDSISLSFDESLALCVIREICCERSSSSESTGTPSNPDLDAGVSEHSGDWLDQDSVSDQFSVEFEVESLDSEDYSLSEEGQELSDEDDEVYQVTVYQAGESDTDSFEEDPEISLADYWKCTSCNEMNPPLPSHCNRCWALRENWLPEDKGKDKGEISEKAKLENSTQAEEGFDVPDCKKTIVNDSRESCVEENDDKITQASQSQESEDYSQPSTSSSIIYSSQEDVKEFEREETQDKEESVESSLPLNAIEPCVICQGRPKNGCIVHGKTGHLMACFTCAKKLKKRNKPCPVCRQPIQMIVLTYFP
T1 sequence (Q96SW2 whole entry, looked up): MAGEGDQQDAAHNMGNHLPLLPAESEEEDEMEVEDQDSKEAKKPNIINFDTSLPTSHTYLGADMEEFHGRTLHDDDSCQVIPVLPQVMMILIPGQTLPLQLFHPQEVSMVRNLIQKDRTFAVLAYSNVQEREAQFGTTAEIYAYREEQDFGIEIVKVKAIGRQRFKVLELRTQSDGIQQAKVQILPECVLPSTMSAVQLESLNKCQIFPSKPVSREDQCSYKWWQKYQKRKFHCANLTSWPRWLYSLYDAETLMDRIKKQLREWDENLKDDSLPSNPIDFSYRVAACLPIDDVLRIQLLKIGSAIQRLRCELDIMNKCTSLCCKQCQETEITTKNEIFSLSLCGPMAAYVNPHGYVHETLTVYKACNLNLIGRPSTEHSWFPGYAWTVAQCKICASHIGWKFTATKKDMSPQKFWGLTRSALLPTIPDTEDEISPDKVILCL

[2] = biological target: T1, Protein cereblon/E3 ubiquitin-protein ligase Mdm2 (Homo sapiens); test: PROTAC activity at CRBN/MDM2 in human HEK293 cells assessed as induction of MDM2 degradation at 30 uM measured after 2 hrs by Western blot analysis; assay type: cell-based
[3] = biological target: T1, Protein cereblon/E3 ubiquitin-protein ligase Mdm2 (Homo sapiens); test: PROTAC activity at CRBN/MDM2 in human HEK293 cells at 30 uM measured after 24 hrs Western blot analysis relative to control; assay type: cell-based
[4] = biological target: T1, Protein cereblon/E3 ubiquitin-protein ligase Mdm2 (Homo sapiens); test: PROTAC activity at CRBN/MDM2 in human HEK293 cells assessed as induction of MDM2 degradation at 30 uM measured after 24 hrs by Western blot analysis; assay type: cell-based
[5] = biological target: T1, Protein cereblon/E3 ubiquitin-protein ligase Mdm2 (Homo sapiens); test: PROTAC activity at CRBN/MDM2 in human HEK293 cells assessed as induction of MDM2 degradation measured after 24 hrs by Western blot analysis; assay type: cell-based; settings: dose 3-30 µM
[6] = biological target: T1, Protein cereblon/E3 ubiquitin-protein ligase Mdm2 (Homo sapiens); test: PROTAC activity at CRBN/MDM2 in human HEK293 cells at 3 to 10 uM preincubated with MG132 for 4 hrs followed by compound addition and measured after 20 hrs by Western blot analysis; assay type: cell-based; settings: dose 3-10 µM
[7] = biological target: T1, Protein cereblon/E3 ubiquitin-protein ligase Mdm2 (Homo sapiens); test: PROTAC activity at CRBN/MDM2 in human HEK293 cells assessed as induction of MDM2 degradation at 3 to 10 uM; assay type: cell-based; settings: dose 3-10 µM
[8] = biological target: T1, Protein cereblon/E3 ubiquitin-protein ligase Mdm2 (Homo sapiens); test: PROTAC activity at CRBN/MDM2 in human HEK293 cells assessed as induction of MDM2 degradation at 30 uM by Western blot analysis; assay type: cell-based; settings: time 2-24 hrs, TDE = time-dependent effect
[9] = biological target: T1, Protein cereblon/E3 ubiquitin-protein ligase Mdm2 (Homo sapiens); test: PROTAC activity at CRBN/MDM2 in human HEK293 cells assessed as maximum degradation at 10 uM measured after 24 to 48 hrs by Western blot analysis; assay type: cell-based; settings: time 24-48 hrs
[10] = biological target: T1, Protein cereblon/E3 ubiquitin-protein ligase Mdm2 (Homo sapiens); test: PROTAC activity at CRBN/MDM2 in human HEK293 cells at 3 to 10 uM preincubated with MLN4924 for 4 hrs followed by compound addition and measured after 20 hrs by Western blot analysis; assay type: cell-based; settings: dose 3-10 µM
HEK293 = test: Cytotoxicity against HEK293 cells assessed as cell viability at 0.3 uM incubated for 24 hrs by cell counting kit 8 method; assay type: toxicity, cell-based; settings: human, hek293, 24 h

O=C1CCC(N2C(=O)c3ccc(NCCOCCOCCC(=O)N4CCN(c5nccc(C(F)(F)F)n5)CC4)cc3C2=O)C(=O)N1 (stereo not given)
Activity [1]: Active
Activity [2]: Active
Emax [3]: 31.5%
Activity [4]: inactive

CN(C(=O)CCOCCOCCNc1cccc2c1C(=O)N(C1CCC(=O)NC1=O)C2=O)C(c1ccc(F)cc1)c1cccnc1 (stereo not given)
Emax [3]: 26.5%

CN(C(=O)CCOCCNc1cccc2c1C(=O)N(C1CCC(=O)NC1=O)C2=O)C(c1ccc(F)cc1)c1cccnc1 (stereo not given)
Activity [5]: Dose-Dependent Effect
Activity [6]: inactive
Activity [7]: Active
Emax [3]: 31.2%
Activity [8]: Tde
Activity [9]: Active
Activity [10]: inactive

O=C1CCC(N2C(=O)c3ccc(NCCOCCC(=O)N4CCOC(c5cccc(OC(F)F)c5)C4)cc3C2=O)C(=O)N1 (stereo not given)
Emax [3]: 23.2%

CN1C(=O)CCC(N2C(=O)c3cccc(NCCOCCC(=O)N(C)C(c4ccc(F)cc4)c4cccnc4)c3C2=O)C1=O (stereo not given)
Activity [7]: inactive
Emax [3]: inactive

O=C1CCC(N2C(=O)c3cccc(NCCOCCOCCC(=O)N4CCOC(c5cccc(OC(F)F)c5)C4)c3C2=O)C(=O)N1 (stereo not given)
Activity [1]: Active
Emax [3]: 28.3%

CN(C(=O)CCOCCOCCOCCNc1cccc2c1C(=O)N(C1CCC(=O)NC1=O)C2=O)C(c1ccc(F)cc1)c1cccnc1 (stereo not given)
Emax [3]: 5.6%

NS(=O)(=O)OC[C@@H]1C[C@@H](n2ccc3c(N[C@H]4CCc5ccccc54)ncnc32)C[C@@H]1O [PEVONEDISTAT]
Activity (HEK293): Non-Toxic

CN(C(=O)CCOCCOCCOCCOCCNc1cccc2c1C(=O)N(C1CCC(=O)NC1=O)C2=O)C(c1ccc(F)cc1)c1cccnc1 (stereo not given)
Emax [3]: 5.5%
